Results from paper PMC10349806 (Nature Communications, 2023).
Several values for one entry are separate records, joined by “and”; a condition that tells them apart may be missing. Identical values can stand only once.

Key:
[1] = biological target: T1, PfCRT variant E95A (Plasmodium falciparum, UniProt Q9N623, A220S/E95A/I356T/K76T/M74I/N326S/N75E/Q271E/R371I); test: CQ uptake assay, oocytes expressing E95A; assay type: cell-based
T1 sequence (Q9N623 1-424 M74I/N75E/K76T/E95A/A220S/Q271E/N326S/I356T/R371I): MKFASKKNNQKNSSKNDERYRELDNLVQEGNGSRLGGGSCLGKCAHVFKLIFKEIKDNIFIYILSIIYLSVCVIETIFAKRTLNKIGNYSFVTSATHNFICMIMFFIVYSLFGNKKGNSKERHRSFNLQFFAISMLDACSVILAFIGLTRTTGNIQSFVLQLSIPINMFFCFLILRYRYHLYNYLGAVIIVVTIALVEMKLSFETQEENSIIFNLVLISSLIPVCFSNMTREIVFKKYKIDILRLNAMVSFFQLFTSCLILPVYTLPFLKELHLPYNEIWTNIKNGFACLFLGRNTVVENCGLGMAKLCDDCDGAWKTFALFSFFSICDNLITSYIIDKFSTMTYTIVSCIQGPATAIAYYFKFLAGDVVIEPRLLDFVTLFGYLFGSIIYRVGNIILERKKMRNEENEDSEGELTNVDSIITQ
Experimental: (§1) Site-directed mutagenesis of PfCRT^Dd2 was performed as described using the megaprimer method with overlap extension[21],[54]. The primer pairs used are listed in Supplementary Table 6. Please note that a codon-optimized and oocyte-adapted version of PfCRT^Dd2 was used[22] (Supplementary Fig. 16). The resulting DNA fragment was cloned into the SP64T expression vector and verified by sequencing.
Oocytes were obtained as described previously. Briefly, adult (>2 years old) female X. laevis frogs (NASCO) were anesthetized in a cooled solution of ethyl 3-amino benzoate methanesulfonate (0.1%, w/v), followed by a surgical removal of parts of the ovary. The ovary lobes were carefully dissected and small pieces of oocytes were incubated in Ca^2+-free ND96 buffer (96 mM NaCl, 2 mM KCl, 1 mM MgCl2 buffered with 5 mM HEPES/NaOH, pH 7.5) supplemented with collagenase D (0.1%, w/v; Roche), BSA (0.5%, w/v), and 9 mm Na2HPO4 at 18 °C for 14-16 h while gentle shaking. After incubation, the oocytes were carefully washed several times with ND96 buffer (96 mM NaCl, 2 mM KCl, 1.8 mM CaCl2, 1 mM MgCl2 buffered with 5 mM HEPES/NaOH, pH 7.5) supplemented with 100 mg l^−1 gentamycin). Defolliculated and healthy-looking stage V-VI oocytes were manually selected for RNA microinjection. The RNA was generated as following: The codon-optimized sequences of PfCRT variants were cloned into the pSP64T expression vector. After vector linearization using the restriction endonucleases BamHI or SalI (New England Biolabs), transcription was performed using the in vitro SP6 mMessage mMachine Kit (Ambion)[34]. The obtained RNA was kept at −80 °C and diluted with nuclease-free water to a concentration of 0.6 μg μl^−1. […]
Drug uptake assays were performed as described previously[21],[22],[24],[34]. […] The radioactivity of each sample was measured using a liquid scintillation analyzer Tri-Carb 4910 TR (PerkinElmer). Oocytes that were injected with water instead of RNA were analyzed in parallel, representing the uptake of a drug by diffusion and/or endogenous permeation pathways. […]

[2] = system: PfCRT variant E121A; test: CQ uptake assay, oocytes expressing E121A; assay type: cell-based, Plasmodium falciparum
Experimental: as §1
(§2) Oocytes were obtained as described previously. Briefly, adult (>2 years old) female X. laevis frogs (NASCO) were anesthetized in a cooled solution of ethyl 3-amino benzoate methanesulfonate (0.1%, w/v), followed by a surgical removal of parts of the ovary. The ovary lobes were carefully dissected and small pieces of oocytes were incubated in Ca^2+-free ND96 buffer (96 mM NaCl, 2 mM KCl, 1 mM MgCl2 buffered with 5 mM HEPES/NaOH, pH 7.5) supplemented with collagenase D (0.1%, w/v; Roche), BSA (0.5%, w/v), and 9 mm Na2HPO4 at 18 °C for 14-16 h while gentle shaking. After incubation, the oocytes were carefully washed several times with ND96 buffer (96 mM NaCl, 2 mM KCl, 1.8 mM CaCl2, 1 mM MgCl2 buffered with 5 mM HEPES/NaOH, pH 7.5) supplemented with 100 mg l^−1 gentamycin). Defolliculated and healthy-looking stage V-VI oocytes were manually selected for RNA microinjection. The RNA was generated as following: The codon-optimized sequences of PfCRT variants were cloned into the pSP64T expression vector. After vector linearization using the restriction endonucleases BamHI or SalI (New England Biolabs), transcription was performed using the in vitro SP6 mMessage mMachine Kit (Ambion)[34]. The obtained RNA was kept at −80 °C and diluted with nuclease-free water to a concentration of 0.6 μg μl^−1. Precision-bore glass capillary tubes (3.5-inch glass capillaries; Drummond Scientific Co.) were pulled on a vertical puller (P-87 Flaming/Brown micropipette puller, Sutter Instrument Co.), graduated, and placed on a microinjector (Nanoject II Auto-Nanoliter Injector, Drummond Scientific Co.). 50 nl of nuclease-free water alone (control oocytes) or 50 nl of 0.6 μg μl^−1 RNA were injected under stereomicroscopic control. Injected oocytes were incubated for 46–72 h at 18 °C with twice-daily buffer changes before usage in experiments.
Drug uptake assays were performed as described previously[21],[22],[24],[34]. […] The direction of radio-labeled drug transport is here from the mostly acidic extracellular solution (pH 4.5 or 6.0, as indicated) into the oocyte cytosol (pH ∼ 7.2), which corresponds to the efflux of drug from the acidic digestive vacuole (pH 5.2) into the parasite cytoplasm (pH 7.2). The topology of PfCRT in the oolemma is such that both the N- and C-terminus face the extracellular milieu[3],[22]. In the parasite, the N- and C-terminus face the lumen of the digestive vacuole. CQ uptake kinetics were performed by incubating oocytes in ND96 buffer adjusted to a pH of 4.5, 5.0, 5.5, or 6.0 and supplemented with 50 nM [^3H]CQ and one of 7 different CQ concentrations (10 µM, 50 µM, 100 µM, 200 µM, 300 µM, 400 µM, 500 µM CQ). The reaction was stopped at the 60 min time point, which is in the linear uptake range[22],[34] (Supplementary Fig. 17). […] The radioactivity of each sample was measured using a liquid scintillation analyzer Tri-Carb 4910 TR (PerkinElmer). Oocytes that were injected with water instead of RNA were analyzed in parallel, representing the uptake of a drug by diffusion and/or endogenous permeation pathways. […]

[3] = system: PfCRT variant D313A; test: CQ uptake assay, oocytes expressing D313A; assay type: cell-based, Plasmodium falciparum
Experimental: as §1, §2
(§3) Drug uptake assays were performed as described previously[21],[22],[24],[34]. […] The direction of radio-labeled drug transport is here from the mostly acidic extracellular solution (pH 4.5 or 6.0, as indicated) into the oocyte cytosol (pH ∼ 7.2), which corresponds to the efflux of drug from the acidic digestive vacuole (pH 5.2) into the parasite cytoplasm (pH 7.2). The topology of PfCRT in the oolemma is such that both the N- and C-terminus face the extracellular milieu[3],[22]. In the parasite, the N- and C-terminus face the lumen of the digestive vacuole. CQ uptake kinetics were performed by incubating oocytes in ND96 buffer adjusted to a pH of 4.5, 5.0, 5.5, or 6.0 and supplemented with 50 nM [^3H]CQ and one of 7 different CQ concentrations (10 µM, 50 µM, 100 µM, 200 µM, 300 µM, 400 µM, 500 µM CQ). The reaction was stopped at the 60 min time point, which is in the linear uptake range[22],[34] (Supplementary Fig. 17). For determination of the amount of drug uptake for each oocyte, the reaction medium was removed and the oocytes were washed three times with 2 ml of ice-cold ND96 buffer. Each oocyte was individually transferred to a scintillation vial containing 5% sodium dodecyl sulfate (200 μl) for lysis. The radioactivity of each sample was measured using a liquid scintillation analyzer Tri-Carb 4910 TR (PerkinElmer). Oocytes that were injected with water instead of RNA were analyzed in parallel, representing the uptake of a drug by diffusion and/or endogenous permeation pathways. The resulting value represents the “background“ level of drug accumulation in oocytes (in-depth discussion in[22]). […]

[4] = system: PfCRT variant E207Y; test: CQ uptake assay, oocytes expressing E207Y; assay type: cell-based, Plasmodium falciparum
Experimental: as §1, §2, §3

[5] = E121A, 50 µM CQ, 1 h, mean ± SEM
[6] = pH 4.5, single replicates, Fig 1d left
[7] = pH 6.0, single replicates, Fig 1d left
[8] = D313A, 50 µM CQ, 1 h, mean ± SEM
[9] = E207Y, 50 µM CQ, 1 h, mean ± SEM

**Q.** What does the source list for `CCN(CC)CCCC(C)Nc1ccnc2cc(Cl)ccc12` (centres unmarked) [CQ, chloroquine]?
**A.** Activity at pH 4.5 ([1]; 50 µM CQ, 1 h, mean ± SEM): 1.21 ± 0.20 pmol h-1 oocyte-1; Activity at pH 6.0 ([1]; 50 µM CQ, 1 h, mean ± SEM): 2.74 ± 0.74 pmol h-1 oocyte-1; R-value ([1]; CQ transport at pH 4.5 / pH 6.0): 0.41 ± 0.11; Activity at pH 4.5 [2, 5]: 1.35 ± 0.09 pmol h-1 oocyte-1; Activity at pH 6.0 [2, 5]: 3.95 ± 0.82 pmol h-1 oocyte-1; R-value ([2]; E121A, CQ transport at pH 4.5 / pH 6.0): 0.43 ± 0.06; E121A transport activity pH 4.5 [2, 6]: 1.13 pmol oocyte-1 h-1 and 1.51 pmol oocyte-1 h-1 and 1.41 pmol oocyte-1 h-1; E121A transport activity pH 6.0 [2, 7]: 5.74 pmol oocyte-1 h-1 and 2.27 pmol oocyte-1 h-1 and 3.83 pmol oocyte-1 h-1; Activity at pH 4.5 [3, 8]: 1.49 ± 0.21 pmol h-1 oocyte-1; Activity at pH 6.0 [3, 8]: 4.55 ± 0.45 pmol h-1 oocyte-1; R-value ([3]; D313A, CQ transport at pH 4.5 / pH 6.0): 0.33 ± 0.04; D313A transport activity pH 4.5 [3, 6]: 2.00 pmol oocyte-1 h-1 and 1.13 pmol oocyte-1 h-1 and 1.34 pmol oocyte-1 h-1; D313A R-value ([3]; pH 4.5 vs pH 6.0, Fig 1d left): 0.38 and 0.23 and 0.39; D313A transport activity pH 6.0 [3, 7]: 5.27 pmol oocyte-1 h-1 and 4.91 pmol oocyte-1 h-1 and 3.47 pmol oocyte-1 h-1; Activity at pH 4.5 [4, 9]: 1.70 ± 0.21 pmol h-1 oocyte-1; Activity at pH 6.0 [4, 9]: 1.84 ± 0.21 pmol h-1 oocyte-1; R-value ([4]; E207Y, CQ transport at pH 4.5 / pH 6.0): 0.92 ± 0.06; E207Y transport activity pH 4.5 ([4]; pH 4.5, individual replicates, Fig 6b): 2.50 pmol oocyte-1 h-1 and 1.56 pmol oocyte-1 h-1 and 1.84 pmol oocyte-1 h-1 and 1.50 pmol oocyte-1 h-1 and 1.10 pmol oocyte-1 h-1; E207Y transport activity pH 6.0 ([4]; pH 6.0, individual replicates, Fig 6b): 2.64 pmol oocyte-1 h-1 and 1.70 pmol oocyte-1 h-1 and 1.99 pmol oocyte-1 h-1 and 1.61 pmol oocyte-1 h-1 and 1.24 pmol oocyte-1 h-1; E207Y R-value ([4]; ratio of activity pH 4.5 / pH 6.0): 0.95 and 0.92 and 0.93 and 0.89
